{"source": "patent US5455229A", "about": "“Method for minimizing and containing ischemic and reperfusion injury” (Eli Lilly and Company, priority 1992, dated 1995)", "key": {"[1]": {"tested_on": "dog", "settings": "Diaz et al., Am. J. Cardiol. 40: 541-549, 1977; cited from earlier work"}, "[2]": {"tested_on": "beagle dogs", "experiment": "In vivo assay: myocardial infarct size following coronary artery occlusion (1 hr) and reperfusion (5 hr) in anesthetized dogs", "set-up": "species or system dog", "settings": "dogs infused with aprotinin, control dogs 37.9±5.4%, P<0.05", "experimental": "Adult male beagle dogs weighing approximately 9-14 kg were anesthetized with pentobarbital sodium (30 mg/kg, i.v.). The tracheae were intubated, and the dogs were ventilated with room air delivered from a Harvard respirator (ventilation rate of 16 cycles/min, tidal volume, 25 ml/kg). Body temperature was maintained at 37-°38° C. with a heating pad. Catheters were placed in the left femoral artery and vein for measurement of phasic arterial blood pressure (Starham transducer, P23ID) and i.v. infusion of drug solutions, respectively. Mean arterial blood pressure was calculated as diastolic blood pressure plus 1/3 pulse pressure. Cardiac rate was monitored by a cardiotachometer that was triggered by the systolic pressure pulse, while the pressure rate product was monitored as an index of myocardial oxygen demand. […] Directly measured parameters were recorded continuously on a multichannel oscillograph (Beckman Instruments,Inc., Fullerton Calif.; model R611).\nA left thoracotomy was performed at the fifth intercostal space, the heart was suspended in a pericardial cradle, and the left circumflex coronary artery (LCX) was isolated distal to its atrial branch and proximal to any major ventricular branches. Baseline circumflex coronary artery blood flow was measured using a calibrated flowprobe (Carolina Medical Electronics, 6 mm I.C.) connected to a Carolina flowmeter (model FM501). […]"}}}
{"substance": "aprotinin [reference compound]", "values": [{"measurement": "myocardial ischemic injury associated with coronary artery occlusion", "setting": "[1]", "result": "has been shown to limit myocardial ischemic injury"}, {"measurement": "infarct size, % of the left ventricular mass at risk of necrosis", "setting": "[2]", "result": "24.8±2.4", "unit": "%"}]}
